What was measured:
[1] = target: T1, androgen receptor (AR-LBD) (Rattus norvegicus, UniProt P15207); experiment: Evaluation of androgen receptor affinity (PolarScreen Androgen Receptor Competitor Assay Kit, Red; fluorescence polarization); conditions: 22° C. for 5 hours, relative to binding rate of 1 μM DHT, read-out: AR affinity (pEC50) (converted)
T1 construct: 5 μL of 2×AR-LBD/Fluoromone AL Red Complex contained in the kit; purchased Invitrogen
T1 sequence (P15207 651-882 limits assumed): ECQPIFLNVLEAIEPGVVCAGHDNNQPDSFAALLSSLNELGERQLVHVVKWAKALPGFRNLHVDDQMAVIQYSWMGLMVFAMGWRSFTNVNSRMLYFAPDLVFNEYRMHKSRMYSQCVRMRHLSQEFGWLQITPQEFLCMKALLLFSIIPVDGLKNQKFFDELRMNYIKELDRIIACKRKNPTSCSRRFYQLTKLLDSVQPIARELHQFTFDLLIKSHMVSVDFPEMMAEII
How it was run: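 Fluorescence polarization competition assay: compound was incubated in duplicate with the kit's AR-LBD/Fluoromone AL Red complex for 5 h at 22 °C. Binding was expressed relative to 1 μM DHT, and pEC50 was derived by 4-parameter fit.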

human androgen receptor = target: T2, human androgen receptor (Homo sapiens, UniProt P10275); experiment: Reporter assay of an androgen receptor responsive sequence (luciferase, transiently transfected HEK293 cells); type: cell-based; conditions: 24 hours incubation, relative to activity of 100 nM DHT, read-out: AR transcriptive activity (pEC50) (converted)
T2 construct: expressed in transfected cells; host or cells: HEK293
T2 sequence (P10275 1-920): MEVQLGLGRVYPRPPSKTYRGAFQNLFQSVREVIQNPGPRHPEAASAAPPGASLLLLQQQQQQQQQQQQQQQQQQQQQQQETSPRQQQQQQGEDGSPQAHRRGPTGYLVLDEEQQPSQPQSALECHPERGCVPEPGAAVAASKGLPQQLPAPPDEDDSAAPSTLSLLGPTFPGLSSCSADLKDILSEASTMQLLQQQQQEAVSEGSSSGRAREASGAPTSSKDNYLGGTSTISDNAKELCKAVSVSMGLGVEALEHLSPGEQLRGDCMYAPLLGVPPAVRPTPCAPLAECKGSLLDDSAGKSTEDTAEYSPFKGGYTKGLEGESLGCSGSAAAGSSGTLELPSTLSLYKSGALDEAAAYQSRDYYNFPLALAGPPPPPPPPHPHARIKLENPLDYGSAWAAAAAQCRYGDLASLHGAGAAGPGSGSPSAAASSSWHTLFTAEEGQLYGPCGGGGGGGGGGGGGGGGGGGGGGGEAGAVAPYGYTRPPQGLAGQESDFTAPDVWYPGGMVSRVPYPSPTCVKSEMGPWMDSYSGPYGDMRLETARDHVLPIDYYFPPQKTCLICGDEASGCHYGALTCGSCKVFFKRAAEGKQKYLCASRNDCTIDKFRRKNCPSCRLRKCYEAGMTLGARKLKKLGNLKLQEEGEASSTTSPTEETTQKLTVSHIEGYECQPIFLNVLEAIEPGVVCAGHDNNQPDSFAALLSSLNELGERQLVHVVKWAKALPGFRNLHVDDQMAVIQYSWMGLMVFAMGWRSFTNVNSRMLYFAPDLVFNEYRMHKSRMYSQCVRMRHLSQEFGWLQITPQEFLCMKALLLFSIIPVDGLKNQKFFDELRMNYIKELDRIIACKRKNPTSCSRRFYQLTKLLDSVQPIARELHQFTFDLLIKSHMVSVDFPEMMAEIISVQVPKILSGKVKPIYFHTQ
How it was run: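 HEK293 cells transiently transfected for 3 h with ARE-firefly luciferase, full-length human AR and TK-Renilla plasmids, then exposed to compound for 24 h at 37 °C in 5% charcoal-treated FBS/DMEM. Dual-Glo luminescence read; pEC50 from 4-parameter fit relative to 100 nM DHT.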

EC50 [1]	EC50 (human androgen receptor)	Structure (SMILES)
0.0398 µM	3.16 µM	Cc1oc(N(CCc2ccc(OC(F)(F)F)cc2)Cc2ccc(Cl)cn2)nc1C(=O)NS(C)(=O)=O [Compound 561, 2-[(5-chloro-2-pyridyl)methyl-[2-[4-(trifluoromethoxy)phenyl]ethyl]amino]-5-methyl-N-methylsulfonyl-oxazole-4-carboxamide]
0.126 µM	0.158 µM	Cc1sc(N(Cc2ccc(C(F)(F)F)cn2)c2ccc(C#N)cc2)nc1C(=O)NS(C)(=O)=O [Compound 514, 2-[4-cyano-N-[[5-(trifluoromethyl)-2-pyridyl]methyl]anilino]-5-methyl-N-methylsulfonyl-thiazole-4-carboxamide]
0.0631 µM	2 µM	COCCCS(=O)(=O)NC(=O)c1nc(N(CCc2ccc(OC(F)(F)F)cc2)Cc2ccc(C(F)(F)F)nc2)oc1C [Compound 565, N-(3-methoxypropylsulfonyl)-5-methyl-2-[2-[4-(trifluoromethoxy)phenyl]ethyl-[[6-(trifluoromethyl)-3-pyridyl]methyl]amino]oxazole-4-carboxamide]
0.1 µM	> 10 µM	Cc1sc(N(CCCOc2ccccc2)c2ccc(C#N)cc2)nc1C(=O)NS(C)(=O)=O [Compound 368, 2-[4-cyano-N-(3-phenoxypropyl)anilino]-5-methyl-N-methylsulfonyl-thiazole-4-carboxamide]
0.0398 µM	2 µM	COc1cccc(CN(CCc2ccc(OC(F)(F)F)cc2)c2nc(C(=O)NS(C)(=O)=O)c(C)s2)n1 [Compound 505, 2-[(6-methoxy-2-pyridyl)methyl-[2-[4-(trifluoromethoxy)phenyl]ethyl]amino]-5-methyl-N-methylsulfonyl-thiazole-4-carboxamide]
0.0398 µM	5.01 µM	Cc1oc(N(Cc2ccc(OC(F)(F)F)cc2)c2ccc(C#N)cc2)nc1C(=O)NS(C)(=O)=O [Compound 607, 2-[4-cyano-N-[[4-(trifluoromethoxy)phenyl]methyl]anilino]-5-methyl-N-methylsulfonyl-oxazole-4-carboxamide]
0.1 µM	1.26 µM	COCCCS(=O)(=O)NC(=O)c1nc(N(CCc2ccc(C#N)cc2)Cc2ccc(F)cc2)oc1C [Compound 556, 2-[2-(4-cyanophenyl)ethyl-[(4-fluorophenyl)methyl]amino]-N-(3-methoxypropylsulfonyl)-5-methyl-oxazole-4-carboxamide]
0.158 µM	> 10 µM	Cc1sc(N(Cc2ccc(OCc3ccncc3)cc2)c2ccc(C#N)cc2)nc1C(=O)NS(C)(=O)=O [Compound 571, 2-[4-cyano-N-[[4-(4-pyridylmethoxy)phenyl]methyl]anilino]-5-methyl-N-methylsulfonyl-thiazole-4-carboxamide]
0.158 µM	1 µM	Cc1sc(N(Cc2ccc(F)cc2)[C@H]2C[C@@H]2c2ccccc2)nc1C(=O)NS(C)(=O)=O (racemic) [Compound 149, 2-[(4-fluorophenyl)methyl-(trans-2-phenylcyclopropyl)amino]-5-methyl-N-methylsulfonyl-thiazole-4-carboxamide]
0.0251 µM	> 10 µM	Cc1oc(N(Cc2cccc(OC(F)(F)F)c2)c2ccc(C#N)cc2)nc1C(=O)NS(C)(=O)=O [Compound 613, 2-[4-cyano-N-[[3-(trifluoromethoxy)phenyl]methyl]anilino]-5-methyl-N-methylsulfonyl-oxazole-4-carboxamide]
0.0501 µM	0.0794 µM	CS(=O)(=O)NC(=O)c1nc(N(Cc2cccc(OC(F)F)c2)c2ccc(C#N)cc2)sc1Br [Example 255, 5-bromo-2-[4-cyano-N-[[3-(difluoromethoxy)phenyl]methyl]anilino]-N-methylsulfonyl-thiazole-4-carboxamide]
0.794 µM	2.51 µM	Cc1sc(N(CCC2CCCC2O)c2ccc(C#N)cc2)nc1C(=O)NS(C)(=O)=O (stereo not drawn) [Compound 406, 2-[4-cyano-N-[2-(2-hydroxycyclopentyl)ethyl]anilino]-5-methyl-N-methylsulfonyl-thiazole-4-carboxamide]
0.0316 µM	0.0251 µM	CS(=O)(=O)NC(=O)c1nc(N(Cc2ccc(Cl)cc2)c2ccc(C#N)cc2)sc1Br [Example 248, 5-bromo-2-[N-[(4-chlorophenyl)methyl]-4-cyano-anilino]-N-methylsulfonyl-thiazole-4-carboxamide]

The remaining lines, values behind:

Structure (SMILES)	EC50 [1]	EC50 (human androgen receptor)
Cc1sc(N(Cc2ccc(-c3ccc(F)cc3)cn2)c2ccc(C#N)cc2)nc1C(=O)NS(C)(=O)=O [Compound 595, 2-[4-cyano-N-[[5-(4-fluorophenyl)-2-pyridyl]methyl]anilino]-5-methyl-N-methylsulfonyl-thiazole-4-carboxamide]	0.1 µM	1.26 µM
Cc1sc(N(Cc2cccc(SC(F)(F)F)c2)c2ccc(C#N)cc2)nc1C(=O)NS(C)(=O)=O [Compound 57, 2-[4-cyano-N-[[3-(trifluoromethylsulfanyl)phenyl]methyl]anilino]-5-methyl-N-methylsulfonyl-thiazole-4-carboxamide]	0.0316 µM	0.316 µM
Cc1sc(N(Cc2ccccc2)c2ccc(C#N)cc2)nc1C(=O)NS(=O)(=O)CS(C)(=O)=O [Compound 382, 2-(N-benzyl-4-cyano-anilino)-5-methyl-N-(methylsulfonylmethylsulfonyl)thiazole-4-carboxamide]	0.0794 µM	> 10 µM
Cc1sc(N(Cc2ccc(Cl)cc2)Cc2csc3cc(C#N)ccc23)nc1C(=O)NS(C)(=O)=O [Example 305, 2-[(4-chlorophenyl)methyl-[(6-cyanobenzothiophen-3-yl)methyl]amino]-5-methyl-N-methylsulfonyl-thiazole-4-carboxamide]	> 2 µM	> 10 µM
CCc1oc(N(Cc2ccc(Cl)c(Cl)c2)c2ccc(C#N)cc2)nc1C(=O)NS(C)(=O)=O [Compound 633, 2-[4-cyano-N-[(3,4-dichlorophenyl)methyl]anilino]-5-ethyl-N-methylsulfonyl-oxazole-4-carboxamide]	0.0316 µM	0.126 µM
COCCCS(=O)(=O)NC(=O)c1nc(N(Cc2ccc(Cl)cc2)c2ccc(C#N)cc2)sc1C [Example 166, 2-[N-[(4-chlorophenyl)methyl]-4-cyano-anilino]-N-(3-methoxypropylsulfonyl)-5-methyl-thiazole-4-carboxamide]	0.0251 µM	0.0794 µM
Cc1sc(N(CC2CCCC2)c2ccc(C#N)cc2)nc1C(=O)NS(C)(=O)=O [Compound 19, 2-[4-cyano-N-(cyclopentylmethyl)anilino]-5-methyl-N-methylsulfonyl-thiazole-4-carboxamide]	0.158 µM	> 10 µM
CS(=O)(=O)NC(=O)c1nc(N(Cc2ccc(F)cn2)c2ccc(C#N)cc2)sc1Br [Compound 640, 5-bromo-2-[4-cyano-N-[(5-fluoro-2-pyridyl)methyl]anilino]-N-methylsulfonyl-thiazole-4-carboxamide]	0.398 µM	0.316 µM
Cc1nc(CN(c2ccc(C#N)cc2)c2nc(C(=O)NS(C)(=O)=O)c(C)s2)cs1 [Compound 40, 2-[4-cyano-N-[(2-methylthiazol-4-yl)methyl]anilino]-5-methyl-N-methylsulfonyl-thiazole-4-carboxamide]	1 µM	0.501 µM
Cc1sc(N(Cc2cccc(OCc3ccccc3)c2)c2ccc(C#N)cc2)nc1C(=O)NS(C)(=O)=O [Compound 59, 2-[N-[(3-benzyloxyphenyl)methyl]-4-cyano-anilino]-5-methyl-N-methylsulfonyl-thiazole-4-carboxamide]	0.0316 µM	> 10 µM
Cc1oc(N(CC2CCC(F)(F)CC2)c2ccc(C#N)cc2)nc1C(=O)NS(C)(=O)=O [Compound 621, 2-[4-cyano-N-[(4,4-difluorocyclohexyl)methyl]anilino]-5-methyl-N-methylsulfonyl-oxazole-4-carboxamide]	> 2 µM	> 10 µM

Reference: patent publication US10689354B2, “Aminoazole derivative” (Teijin Pharma Limited, priority 2015, dated 2020)
